Read-outs that look alike come from different tables or passages of the source.
What was measured:
Experiment in all cases: cells
[1] = system: Ba/F3-FGFR1-transfected cells
Method: Ba/F3-FGFR1 (Minus IL3 or Plus IL3) (Cellular Proliferation Assay)
(§1) Cells were put in an incubator at 37° C. and 5% CO2.
(§2) As a counterscreen the same experiment was performed in the presence of 10 ng/ml murine IL3.

[2] = system: Ba/F3-KDR-transfected cells
Method: Ba/F3-KDR (Minus IL3 or Plus IL3) (Cellular Proliferation Assay)
as §1, §2

[3] = system: Ba/F3-Flt3-transfected cells; conditions: read-out: BAF3-FLT3 (MIN IL3) pIC50 (converted)
Method: Ba/F3-Flt3 (Minus IL3 or Plus IL3) (Cellular Proliferation Assay)
as §1, §2

[4] = read-out: BAF3-KDR (MIN IL3) pIC50 (converted)
[5] = read-out: BAF3-KDR (PLUS IL3) pIC50 (converted)

Row | SMILES | IC50 [2, 4] | IC50 [2, 5] | IC50 ([3]; 24 h) | further results
1 | COCCN(c1cc(OC)cc(OC)c1)c1cc2cc(-c3cnn(C)c3)cnc2cn1 [Compound 69] | > 10 µM | > 10 µM | – | IC50 ([1]; read-out: BAF3-FGFR1 (MIN IL3) pIC50 (converted)): 8.13 µM; IC50 ([1]; read-out: BAF3-FGFR1 (PLUS IL3) pIC50 (converted)): > 10 µM
2 | COc1cc(OC)c(F)c(N(Cc2nccn2S(=O)(=O)N(C)C)c2cc3cc(-c4cnn(C)c4)cnc3cn2)c1 [Compound 76] | > 10 µM | > 10 µM | – | –
3 | COc1cc(OC)c(F)c(N(Cc2ncc[nH]2)c2ccc3ncc(-c4cnn(C)c4)cc3n2)c1F [Compound 65] | – | – | – | IC50 [3]: 3.55 µM
4 | COc1cc(OC)cc(N(Cc2nccn2S(=O)(=O)N(C)C)c2cc3cc(-c4cnn(C)c4)cnc3cn2)c1 [Compound 66] | > 10 µM | > 10 µM | – | –
5 | COc1cc(OC)c(F)c(N(CCCO)c2cc3cc(-c4cnn(C)c4)cnc3cn2)c1 [Compound 75] | > 10 µM | > 10 µM | – | –
6 | COc1cc(OC)c(F)c(N(Cc2ncccn2)c2ccc3ncc(-c4cnn(C)c4)cc3n2)c1 [Compound 27] | – | – | – | IC50 [3]: > 10 µM
7 | COc1cc(OC)cc(N(Cc2ncc[nH]2)c2cc3cc(-c4cnn(C)c4)cnc3cn2)c1 [Compound 67] | > 10 µM | > 10 µM | – | –
8 | C#CCN(c1cc(OC)cc(OC)c1)c1ccc2ncc(-c3cnn(C)c3)cc2n1 [Compound 8] | – | – | > 10 µM | –
9 | COc1cc(OC)c(F)c(N(Cc2nccn2S(=O)(=O)N(C)C)c2ccc3ncc(-c4cnn(C)c4)cc3n2)c1F [Compound 64] | – | – | – | IC50 [3]: 2.45 µM
10 | COc1cc(OC)cc(N(Cc2ncc[nH]2)c2ccc3ncc(-c4cnn(C)c4)cc3n2)c1 [Compound 10] | – | – | > 10 µM | –
11 | CNCCN(c1cc2cc(-c3cnn(C)c3)cnc2cn1)c1cc(OC)cc(OC)c1F [Compound 73] | > 10 µM | > 10 µM | – | –
12 | COCCN(c1cc(OC)cc(OC)c1)c1ccc2ncc(-c3cnn(C)c3)cc2n1 [Compound 3] | – | – | > 10 µM | –
13 | COc1cc(OC)c(F)c(N(CCCO)c2ccc3ncc(-c4cnn(C)c4)cc3n2)c1F [Compound 22] | – | – | – | IC50 [3]: 3.89 µM
14 | COc1cc(OC)cc(N(CCNC(C)C)c2cc3cc(-c4cnn(C)c4)cnc3cn2)c1 [Compound 68] | > 10 µM | > 10 µM | – | –
15 | COc1cc(OC)cc(N(Cc2nccn2S(=O)(=O)N(C)C)c2ccc3ncc(-c4cnn(C)c4)cc3n2)c1 [Compound 7] | – | – | > 10 µM | –
16 | COc1cc(OC)cc(N(CCNC(C)C)c2ccc3ncc(-c4cnn(C)c4)cc3n2)c1 [Compound 4] | – | – | 7.94 µM | –
17 | COc1cc(OC)c(F)c(N(Cc2ncccn2)c2ccc3ncc(-c4cnn(C)c4)cc3n2)c1F [Compound 14] | – | – | – | IC50 [3]: 7.76 µM
18 | COc1cc(OC)cc(N(CCCO)c2ccc3ncc(-c4cnn(C)c4)cc3n2)c1 [Compound 2] | – | – | > 10 µM | –
19 | COc1cc(OC)cc(N(CCN(CCNC(C)C)C(C)C)c2ccc3ncc(-c4cnn(C)c4)cc3n2)c1 [Compound 6] | – | – | 5.01 µM | –
20 | COc1cc(OC)cc(N(CCO)c2ccc3ncc(-c4cnn(C)c4)cc3n2)c1 [Compound 1] | – | – | 8.91 µM | –
21 | COc1cc(OC)c(F)c(N(Cc2ncc[nH]2)c2cc3cc(-c4cnn(C)c4)cnc3cn2)c1 [Compound 77] | > 10 µM | > 10 µM | – | –
22 | COc1cc(/N=c2\ccc3ncc(-c4cnn(C)c4)cc3n2CCNC(C)C)cc(OC)c1 [Compound 5] | – | – | > 10 µM | –
